Assay results reported in patent US20150231147A1, “METHODS FOR ACUTE AND LONG-TERM TREATMENT OF DRUG ADDICTION” (DemeRx, Inc., priority 2014, published 2015).

Tested on: opioid-dependent participants
Test: Treatment emergent adverse events in opioid-dependent participants
Type: in vivo, human
Details: opioid-dependent patients
Experimental: The efficacy of noribogaine in humans was evaluated in opioid-dependent participants in a randomized, placebo-controlled, double-blind trial. […] See U.S. application Ser. No. 14/214,157, filed Mar. 14, 2014 and Ser. No. 14/346,655, filed Mar. 21, 2014, which are incorporated herein by reference in their entireties.
Three cohorts of nine (9) subjects (6 administered noribogaine and 3 administered placebo in each cohort) were evaluated for tolerability, pharmacokinetics, and efficacy. Cohort 1 received a single dose of 60 mg noribogaine or placebo. Cohort 2 received a single dose of 120 mg noribogaine or placebo. Cohort 3 received a single dose of 180 mg noribogaine or placebo.

CC[C@H]1CC2C[C@H]3c4[nH]c5ccc(O)cc5c4CCN(C2)C13 [Noribogaine]
no hallucinatory effects: hallucinatory effects (single 60, 120 or 180 mg dose)
Few adverse effects: adverse effects observed (single 60, 120 or 180 mg dose)
0: Treatment emergent AEs: Catheter Site Infection (single 60 mg dose (N = 6)) | Treatment emergent AEs: Catheter Site Pain (single 60 mg dose (N = 6)) | Treatment emergent AEs: Catheter Site Related Reaction (single 60 mg dose (N = 6)) | Treatment emergent AEs: Cellulitis (single 60 mg dose (N = 6)) | Treatment emergent AEs: Diarrhoea (single 60 mg dose (N = 6)) | Treatment emergent AEs: Dry Mouth (single 60 mg dose (N = 6)) | Treatment emergent AEs: Ear and Labyrinth Disorders (single 60 mg dose (N = 6)) | Treatment emergent AEs: Epistaxis (single 60 mg dose (N = 6)) | Treatment emergent AEs: Euphoric Mood (single 60 mg dose (N = 6)) | Treatment emergent AEs: General Disorders and Administration Site Conditions (single 60 mg dose (N = 6)) | Treatment emergent AEs: Hyperaesthesia (single 60 mg dose (N = 6)) | Treatment emergent AEs: Infections and Infestations (single 60 mg dose (N = 6)) | Treatment emergent AEs: Limb Discomfort (single 60 mg dose (N = 6)) | Treatment emergent AEs: Malaise (single 60 mg dose (N = 6)) | Treatment emergent AEs: Nausea (single 60 mg dose (N = 6)) | Treatment emergent AEs: Oropharyngeal Pain (single 60 mg dose (N = 6)) | Treatment emergent AEs: Pseudoparalysis (single 60 mg dose (N = 6)) | Treatment emergent AEs: Respiratory, Thoracic and Mediestinal Disorders (single 60 mg dose (N = 6)) | Treatment emergent AEs: Rhinorrhoea (single 60 mg dose (N = 6)) | Treatment emergent AEs: Skin Discomfort (single 60 mg dose (N = 6)) | Treatment emergent AEs: Skin Irritation (single 60 mg dose (N = 6)) | Treatment emergent AEs: Skin and Subcutaneous Tissue Disorders (single 60 mg dose (N = 6)) | Treatment emergent AEs: Somnolence (single 60 mg dose (N = 6)) | Treatment emergent AEs: Tinnitus (single 60 mg dose (N = 6)) | Treatment emergent AEs: Tremor (single 60 mg dose (N = 6)) | Treatment emergent AEs: Urinary Tract Infection (single 60 mg dose (N = 6)) | Treatment emergent AEs: Vomiting (single 60 mg dose (N = 6)) | Treatment emergent AEs: Back pain (single 120 mg dose (N = 6)) | Treatment emergent AEs: Catheter Site Infection (single 120 mg dose (N = 6)) | Treatment emergent AEs: Catheter Site Related Reaction (single 120 mg dose (N = 6)) | Treatment emergent AEs: Depressed Mood (single 120 mg dose (N = 6)) | Treatment emergent AEs: Dry Eye (single 120 mg dose (N = 6)) | Treatment emergent AEs: Dyspepsia (single 120 mg dose (N = 6)) | Treatment emergent AEs: Euphoric Mood (single 120 mg dose (N = 6)) | Treatment emergent AEs: Limb Discomfort (single 120 mg dose (N = 6)) | Treatment emergent AEs: Malaise (single 120 mg dose (N = 6)) | Treatment emergent AEs: Musculoskeletal and Connective Tissue Disorders (single 120 mg dose (N = 6)) | Treatment emergent AEs: Psychiatric Disorders (single 120 mg dose (N = 6)) | Treatment emergent AEs: Somnolence (single 120 mg dose (N = 6)) | Treatment emergent AEs: Urinary Tract Infection (single 120 mg dose (N = 6)) | Treatment emergent AEs: Catheter Site Infection (single 180 mg dose (N = 6)) | Treatment emergent AEs: Catheter Site Pain (single 180 mg dose (N = 6)) | Treatment emergent AEs: Depressed Mood (single 180 mg dose (N = 6)) | Treatment emergent AEs: Diarrhoea (single 180 mg dose (N = 6)) | Treatment emergent AEs: Dry Eye (single 180 mg dose (N = 6)) | Treatment emergent AEs: Dyspepsia (single 180 mg dose (N = 6)) | Treatment emergent AEs: Ear and Labyrinth Disorders (single 180 mg dose (N = 6)) | Treatment emergent AEs: Epistaxis (single 180 mg dose (N = 6)) | Treatment emergent AEs: Euphoric Mood (single 180 mg dose (N = 6)) | Treatment emergent AEs: Hyperaesthesia (single 180 mg dose (N = 6)) | Treatment emergent AEs: Malaise (single 180 mg dose (N = 6)) | Treatment emergent AEs: Oropharyngeal Pain (single 180 mg dose (N = 6)) | Treatment emergent AEs: Pseudoparalysis (single 180 mg dose (N = 6)) | Treatment emergent AEs: Psychiatric Disorders (single 180 mg dose (N = 6)) | Treatment emergent AEs: Respiratory, Thoracic and Mediestinal Disorders (single 180 mg dose (N = 6)) | Treatment emergent AEs: Rhinorrhoea (single 180 mg dose (N = 6)) | Treatment emergent AEs: Skin Discomfort (single 180 mg dose (N = 6)) | Treatment emergent AEs: Skin Irritation (single 180 mg dose (N = 6)) | Treatment emergent AEs: Skin and Subcutaneous Tissue Disorders (single 180 mg dose (N = 6)) | Treatment emergent AEs: Somnolence (single 180 mg dose (N = 6)) | Treatment emergent AEs: Tinnitus (single 180 mg dose (N = 6)) | Treatment emergent AEs: Tremor (single 180 mg dose (N = 6))
